Reference: PMC6437269, “OXA-48-Mediated Ceftazidime-Avibactam Resistance Is Associated with Evolutionary Trade-Offs” (mSphere, 2019)
Converted amounts (≈) assume the structure as drawn. Where two headings read alike, the source gives them in different places.

Columns and labels:
E. coli MG1655 (MP100) = test: microbe, parasite or virus in culture; format: cell-based, Escherichia coli; conditions: Escherichia coli, MG1655
Description: (§1) For MIC determination, single colonies were suspended in 0.9% saline buffer to a 0.5 McFarland standard and further diluted 1:100 in MH broth. Fifty microliters of the bacterial suspension was loaded onto in-house-designed and premade Sensititre microtiter plates (TREK Diagnostic Systems/Thermo Fisher Scientific, East Grinstead, United Kingdom). The plates were incubated for 20 h at 37°C. Antibiotic susceptibility testing was performed in duplicates.

[1] = test system: MP101 (MP100 transformed with p50579417_3_OXA-48); test: MIC determination, MP101 (MG1655 with native OXA-48 plasmid); format: cell-based, Escherichia coli; conditions: Escherichia coli; Table 6; MP101, native plasmid; read-out: MIC
Source text: Mueller-Hinton (MH) agar and broth were purchased from Thermo Fisher Scientific (East Grinstead, United Kingdom). Luria-Bertani (LB) broth, LB agar, ampicillin, amoxicillin, cefepime, CAZ, imipenem, meropenem, piperacillin, and tazobactam were obtained from Sigma-Aldrich (St. Louis, MO). Nitrocefin was purchased from Merck (Darmstadt, Germany). The characteristics of the clinical E. coli strain 50579417 harboring the OXA-48 plasmid (p50579417_3_OXA-48) have been described previously ([61], [62]). The plasmid p50579417_3_OXA-48 was conjugated into rifampin-resistant E. coli TOP10 and subsequently isolated using a plasmid mini-purification kit (Qiagen, Germany). E. coli MG1655 (DA4201) was electroporated with p50579417_3_OXA-48 as published previously ([63]). Transformants positive for blaOXA-48 were checked by PCR using REDTaq ready mix (Sigma-Aldrich, St. Louis, MO) and preOXA-48 primers ([61]).
as §1

[2] = test system: MP104 (E. coli TOP10 expressing native OXA-48); test: MIC determination, TOP10 expressing native OXA-48 (MP104); format: cell-based; conditions: Escherichia coli; Table 3; MP104, native OXA-48 in pCR-blunt II TOPO
Description: as §1
For a functional resistance profile, the native and mutated blaOXA-48 genes were cloned in the pCR-blunt II-TOPO vector (Invitrogen, CA) and expressed in E. coli TOP10 (Invitrogen, CA). The PCR product was obtained by Phusion High Fidelity PCR mastermix with High Fidelity buffer (New England Biolabs, MA) and preOXA-48 primers ([61]). Transformants were selected on LB agar plates containing 50 or 100 mg/liter ampicillin. Insertion size was verified by Sanger sequencing using M13 forward (5′-[…]-3′) and reverse (5′-[…]-3′) primers.

[3] = test system: MP107 (MP100 transformed with p50579417_3_OXA-48-CAZ); test: MIC determination, MP107 (MG1655 with CAZ-adapted plasmid); format: cell-based; conditions: Escherichia coli; Table 6; MP107, adapted plasmid p50579417-OXA-48-CAZ
Description: as §1

E. coli TOP10 = test: microbe, parasite or virus in culture; format: cell-based; conditions: Escherichia coli
Description: as §1

[4] = test system: MP105 (E. coli TOP10 expressing OXA-48:P68A); test: microbe, parasite or virus in culture; format: cell-based; conditions: Escherichia coli; Table 3; MP105, OXA-48:P68A in pCR-blunt II TOPO
[5] = test system: MP108 (MP100 transformed with p50579417_3_OXA-48-CAZ-AVI); test: MIC determination, MP108 (MG1655 with CAZ-AVI-adapted plasmid); format: cell-based; conditions: Escherichia coli; Table 6; MP108, adapted plasmid p50579417-OXA-48-CAZ-AVI
Description: as §1

OXA-48:P68A = OXA-48:P68A (Klebsiella pneumoniae, UniProt Q6XEC0, P68A); test: Steady-state enzyme kinetics, OXA-48:P68A; format: biochemical; conditions: substrate hydrolysis, 25°C, pH 7.0, error = 95% CI
[6] = test system: CC1(C)S[C@@H]2[C@H](NC(=O)[C@H](N)c3ccccc3)C(=O)N2[C@H]1C(=O)O; test: purified protein, by the assay type; conditions: other: substrate hydrolysis, 25°C, 0.1 M phosphate buffer pH 7.0, 50 mM NaHCO3, error = 95% CI
[7] = test system: O=C(Cc1cccs1)N[C@@H]1C(=O)N2C(C(=O)O)=C(/C=C/c3ccc([N+](=O)[O-])cc3[N+](=O)[O-])CS[C@H]12; test: purified protein, by the assay type; conditions: other: substrate hydrolysis, 25°C, 0.1 M phosphate buffer pH 7.0, 50 mM NaHCO3, error = 95% CI
[8] = test system: CO/N=C(\C(=O)N[C@@H]1C(=O)N2C(C(=O)[O-])=C(C[N+]3(C)CCCC3)CS[C@H]12)c1csc(N)n1; test: purified protein, by the assay type; conditions: other: substrate hydrolysis, 25°C, 0.1 M phosphate buffer pH 7.0, 50 mM NaHCO3, error = 95% CI
[9] = test system: C[C@@H](O)[C@H]1C(=O)N2C(C(=O)O)=C(SCCN=CN)C[C@H]12; test: purified protein, by the assay type; conditions: other: substrate hydrolysis, 25°C, 0.1 M phosphate buffer pH 7.0, 50 mM NaHCO3, error = 95% CI
[10] = test system: CCN1CCN(C(=O)N[C@@H](C(=O)N[C@@H]2C(=O)N3[C@@H]2SC(C)(C)[C@@H]3C(=O)O)c2ccccc2)C(=O)C1=O; test: purified protein, by the assay type; conditions: other: substrate hydrolysis, 25°C, 0.1 M phosphate buffer pH 7.0, 50 mM NaHCO3, error = 95% CI
[11] = test system: CC(C)(O/N=C(\C(=O)N[C@@H]1C(=O)N2C(C(=O)[O-])=C(C[n+]3ccccc3)CS[C@H]12)c1csc(N)n1)C(=O)O; test: purified protein, by the assay type; conditions: other: substrate hydrolysis, 25°C, 0.1 M phosphate buffer pH 7.0, 50 mM NaHCO3, error = 95% CI
[12] = test system: C[C@@H](O)[C@H]1C(=O)N2C(C(=O)O)=C(S[C@@H]3CN[C@H](C(=O)N(C)C)C3)[C@H](C)[C@H]12; test: purified protein, by the assay type; conditions: other: substrate hydrolysis, 25°C, 0.1 M phosphate buffer pH 7.0, 50 mM NaHCO3, error = 95% CI
crystal structure = molecular target: the molecule itself; test: crystal structure

Molecule: CO/N=C(\C(=O)N[C@@H]1C(=O)N2C(C(=O)O)=C(COC(C)=O)CS[C@H]12)c1csc(N)n1 [FOT, cefotaxime]
- MIC (E. coli MG1655 (MP100); Table 6, MP100, read-out: MIC): 0.12 µg/mL (≈ 0.263 µM)
- MIC [1]: 0.5 µg/mL (≈ 1.1 µM)
- MIC [2]: 0.25 µg/mL (≈ 0.549 µM)
- MIC [3]: 1 µg/mL (≈ 2.2 µM)
- MIC (E. coli TOP10; Table 3, read-out: MIC): 0.12 µg/mL (≈ 0.263 µM)
- MIC [4]: 0.25 µg/mL (≈ 0.549 µM)
- MIC [5]: 0.25 µg/mL (≈ 0.549 µM)

Molecule: C[C@@H](O)[C@H]1C(=O)N2C(C(=O)O)=C(SCCN=CN)C[C@H]12 [IMI, imipenem]
- MIC (E. coli MG1655 (MP100)): 0.12 µg/mL (≈ 0.401 µM)
- MIC [1]: 1 µg/mL (≈ 3.34 µM)
- MIC [2]: 1 µg/mL (≈ 3.34 µM)
- MIC [3]: 0.25 µg/mL (≈ 0.835 µM)
- MIC (E. coli TOP10): 0.25 µg/mL (≈ 0.835 µM)
- MIC [4]: 0.25 µg/mL (≈ 0.835 µM)
- MIC [5]: 0.25 µg/mL (≈ 0.835 µM)
- Km (OXA-48:P68A): 4.2 ± 0.9 µM
- kcat (OXA-48:P68A): 0.80 ± 0.04 s⁻¹

Molecule: C[C@@H](O)[C@H]1C(=O)N2C(C(=O)O)=C(S[C@@H]3CN[C@H](C(=O)N(C)C)C3)[C@H](C)[C@H]12 [MEM, meropenem]
- MIC (E. coli MG1655 (MP100); Table 6, MP100, read-out: MIC): 0.03 µg/mL (≈ 0.0782 µM)
- MIC [1]: 0.25 µg/mL (≈ 0.652 µM)
- MIC [2]: 0.25 µg/mL (≈ 0.652 µM)
- MIC [3]: 0.06 µg/mL (≈ 0.156 µM)
- MIC (E. coli TOP10; Table 3, read-out: MIC): 0.03 µg/mL (≈ 0.0782 µM)
- MIC [4]: 0.03 µg/mL (≈ 0.0782 µM)
- MIC [5]: 0.06 µg/mL (≈ 0.156 µM)
- Km (OXA-48:P68A): 3 ± 1 µM
- kcat (OXA-48:P68A): (8 ± 0.8) × 10^−4 s^−1

Molecule: O=C(Cc1cccs1)N[C@@H]1C(=O)N2C(C(=O)O)=C(/C=C/c3ccc([N+](=O)[O-])cc3[N+](=O)[O-])CS[C@H]12 [NIT, nitrocefin]
- kcat (OXA-48:P68A): 37 ± 2 s⁻¹
- Km (OXA-48:P68A; read-out: Km): 53 ± 8 µM

Molecule: CCN1CCN(C(=O)N[C@@H](C(=O)N[C@@H]2C(=O)N3[C@@H]2SC(C)(C)[C@@H]3C(=O)O)c2ccccc2)C(=O)C1=O [PIP, piperacillin]
- Km (OXA-48:P68A; read-out: Km): 290 ± 67 µM

Molecule: CO[C@@]1(NC(=O)C(C(=O)O)c2ccsc2)C(=O)N2[C@@H](C(=O)O)C(C)(C)S[C@@H]21 (stereo partly drawn) [TRM, temocillin]
- MIC (E. coli MG1655 (MP100); Table 6, MP100, read-out: MIC): 8 µg/mL (≈ 19.3 µM)
- MIC [1]: 256 µg/mL (≈ 618 µM)
- MIC [2]: 256 µg/mL (≈ 618 µM)
- MIC [3]: 128 µg/mL (≈ 309 µM)
- MIC (E. coli TOP10; Table 3, read-out: MIC): 16 µg/mL (≈ 38.6 µM)
- MIC [4]: 64 µg/mL (≈ 154 µM)
- MIC [5]: 32 µg/mL (≈ 77.2 µM)

Molecule: OXA-48 (Klebsiella pneumoniae)
- Km [6]: 370 ± 70 µM
- kcat [6]: 608 ± 53 s⁻¹
- kcat/Km [6]: 1.64e+06 ± 455000 M⁻¹ s⁻¹
- Km [7]: 226 ± 34 µM
- kcat [7]: 141 ± 12 s⁻¹
- kcat/Km [7]: 624000 ± 148000 M⁻¹ s⁻¹
- Km [8]: 1,678 ± 686 µM
- kcat [8]: 1.7 ± 0.6 s⁻¹
- kcat/Km [8]: 1000 ± 800 M⁻¹ s⁻¹
- Km [9]: 13 ± 2 µM
- kcat [9]: 4.8 ± 0.2 s⁻¹
- kcat/Km [9]: 365000 ± 71000 M⁻¹ s⁻¹
- Km [10]: 898 ± 155 µM
- kcat [10]: 3.9 ± 0.5 s⁻¹
- kcat/Km [10]: 4000 ± 1000 M⁻¹ s⁻¹
- Km [11]: 300 ± 150 µM
- kcat [11]: 3 ± 0.8 s⁻¹
- kcat/Km [11]: 10000 ± 8000 M⁻¹ s⁻¹
- Km [12]: 4 ± 1 µM
- kcat [12]: 0.71 ± 0.02 s⁻¹
- kcat/Km [12]: 177000 ± 50000 M⁻¹ s⁻¹

B1: OXA-48:P68A (enzyme)
chain: KEWQENKSWNAHFTEHKSQGVVVLWNENKQQGFTNNLKRANQAFLAASTFKIPNSLIALDLGVVKDEHQVFKWDGQTRDIATWNRDHNLITAMKYSVVPVYQEFARQIGEARMSKMLHAFDYGNEDISGNVDSFWLDGGIRISATEQISFLRKLYHNKLHVSERSQRIVKQAMLTEANGDYIIRAKTGYSTRIEPKIGWWVGWVELDDNVWFFAMNMDMPTSDGLGLRQAITKEVLKQEKIIP
notes: also called OXA-48:P68A-CAZ; OXA-48:P68A-AVI; source: E. coli Rosetta 2(DE3)/pLysS, purified (>95% purity)
- binding result (crystal structure): binds
